Data set [1] has as its system patients with hyperkinetic movement disorders including ethanol responsive myoclonus and essential tremor. The note with it: five patients, open label; cited from earlier work.
A short description of data set [2]: Plasma pharmacokinetics of sodium oxybate given orally (background and definition statements). The note with it: human, oral.
For data set [3] the following is noted: in man, given orally; cited from earlier work.

In general, Tmax refers to the time from dosing to the highest level. As a reminder, the half-life is the time needed for the level to fall by half in the phase considered. Higher therefore signals slow loss.

As to `O=C(O)CCCO` [sodium oxybate, Sodium gamma-hydroxybutyrate], in data set [1], the “blinded ratings of ethanol responsive myoclonus and tremor” value was “dose-dependent improvements”; the tolerability result was “tolerated at doses that provided clinical benefit”. In addition, in data set [2], the time to peak (Tmax) was 30 to 150 min and the half-life was 24 to 54 min. For the same compound, the plasma half-life result in data set [3] is listed as “about 45 minutes”.

Source of the values: US9795567B2, “Immediate release formulations and dosage forms of gamma-hydroxybutyrate” (Jazz Pharmaceuticals, Inc., priority 2008, dated 2017).
